# Results from article PMC5770468, “Cardiac glycoside/aglycones inhibit HIV-1 gene expression by a mechanism requiring MEK1/2-ERK1/2 signaling” (Scientific Reports, 2018).
# Test system: SRp20/SRSF3
# Test: Immunoblot of SRp20 in HeLa rtTA-HIV-ΔMls cells
# Type: cell-based, human
# Details: 3 d with ~IC50s of CSs
# Text: Figure 4 CSs suppress HIV-1 gene expression by altering viral RNA processing. […] (a,b) CSs induce oversplicing of HIV-1 RNAs (n ≥ 3, mean, s.e.m.). (a) Diagram of the primer positions (arrow heads) used for qRT-PCR. (b) Graph of the relative amount of US (black), SS (white), and MS (gray) HIV-1 RNAs in cells treated with various CSs. (c) Nuclear export of HIV-1 US RNAs in cells is altered by CSs (representative n ≥ 4). HIV-1 US RNAs were localized by FISH after treating HeLa rtTA-HIV(Gag-GFP) cells as described above but with ~IC90s of CSs. Nuclei were stained by DAPI and images captured at 630 × magnification. […] SRp20, Tra2β, and tubulin were analyzed by immunoblot of HeLa rtTA-HIV-ΔMls cells treated as described above except cells of this representative blot were treated 3 d with ~IC50s of CSs. […]
# To monitor HIV-1 gene expression or replication, Gag release into cell culture supernatants were assayed by ELISA using a p24^CA antigen capture assay kit (AIDS & Cancer Virus Program, NCI-Frederick, Frederick, MD USA). […] For analysis of HIV-1 and SR protein expression (and phosphorylation states with calf intestinal alkaline phosphatase treatments), cells were lysed and analyzed by western blot as previously outlined. […] Activation of MAPKs was determined by western blot quantitation and calculation of phospho/total protein levels. […]
structure (smiles),measurement,value
C[C@]12CC[C@H](O)C[C@H]1CC[C@@H]1[C@@H]2CC[C@]2(C)[C@@H](C3=CC(=O)OC3)CC[C@]12O [Digitoxigenin],mobility of SRp20,increased the mobility
